Experimental data from US20230391736A1, “3-TETRAZOLYLMETHYL-1,3,5-TRIAZIN-2,4-DIONE COMPOUND INHIBITING CORONAVIRUS 3CL PROTEASE ACTIVITY AND PREPARATION METHOD AND USE THEREOF” (priority 2022, published 2023).
Read-outs that look alike come from different tables or passages of the source.

How the values were obtained:
[1] = test system: HepG2 cells; experiment: In-vitro cytotoxicity by the MTT method, HepG2 cells; settings: 24 hrs
Description: (§1) The in-vitro cytotoxicity of Compounds 1, 12, and 17 was evaluated by the MTT method. HepG2, HEK293 and A549 cells in logarithmic growth phase were respectively trypsinized into a cell suspension. The cell density was adjusted to 5×10^4 cells/mL. 180 μL per well of the cell suspension was inoculated into a sterile 96-well plate at 37° C., and cultured in an incubator at 5% CO2 for 24 hrs. After the cells were attached to the bottom of the plate, 20 μL of the drug solutions over the concentration gradients were respectively added into each well, and 6 replicate wells were set in parallel. Also, a blank group (group without cells and drug) and a control group (group without drug) were set. The system was incubated in an incubator at 37° C. and 5% CO2 for 24 hrs, and then 20 μL per well of a 5 g/L MTT solution was added and incubated for another 4 hrs. After the incubation was completed, the culture medium in the well was gently aspirated, and 100 μL of DMSO was added to each well. Then the crystal was fully dissolved in a shaker for 10 min at a low speed. After that, the absorbency of each well was measured at OD490 nm in an enzymelinked immunodetector, and the survival rate of cells was calculated.

[2] = test system: A549 cells; experiment: In-vitro cytotoxicity by the MTT method, A549 cells; settings: 24 hrs
Description: as §1

[3] = biological target: SARS-CoV-2 3CL^pro (Severe acute respiratory syndrome coronavirus 2 (2019-nCoV) (SARS-CoV-2), UniProt P0DTD1); experiment: biochemical; settings: for IC50: FRET
[4] = test system: HEK293 cells; experiment: In-vitro cytotoxicity by the MTT method, HEK293 cells; settings: 24 hrs
Description: as §1

[5] = class symbols, read-out: IC50 (nM), inhibitory activity against 3CL^pro
[6] = non-linear regression, read-out: IC50 against 3CL^pro

Cn1cc2cc(/N=c3\[nH]c(=O)n(Cc4nnn[nH]4)c(=O)n3Cc3cc(F)c(F)cc3F)c(Cl)cc2n1 [Compound 1]
Survival rate of HepG2 cells ([1]; 1.5625 nM): 97.17% | Survival rate of HepG2 cells ([1]; 3.125 nM): 96.73% | Survival rate of HepG2 cells ([1]; 6.25 nM): 95.83% | Survival rate of HepG2 cells ([1]; 12.5 nM): 93.62% | Survival rate of HepG2 cells ([1]; 25 nM): 90.15% | Survival rate of HepG2 cells ([1]; 50 nM): 89.09% | Survival rate of HepG2 cells ([1]; 100 nM): 85.37% | Survival rate of HepG2 cells ([1]; 200 nM): 84.76% | Survival rate of HepG2 cells ([1]; 400 nM): 82.33% | Survival rate of A549 cells ([2]; 1.5625 nM): 98.18% | Survival rate of A549 cells ([2]; 3.125 nM): 98.39% | Survival rate of A549 cells ([2]; 6.25 nM): 98.23% | Survival rate of A549 cells ([2]; 12.5 nM): 96.93% | Survival rate of A549 cells ([2]; 25 nM): 96.16% | Survival rate of A549 cells ([2]; 50 nM): 96.33% | Survival rate of A549 cells ([2]; 100 nM): 95.75% | Survival rate of A549 cells ([2]; 200 nM): 93.23% | Survival rate of A549 cells ([2]; 400 nM): 92.19% | IC50 [3, 5]: < 200 nM | IC50 [3, 6]: 120 nM | inhibition percentage of 3CL^pro ([3]; concentration 0.1 nM): 0.86% | inhibition percentage of 3CL^pro ([3]; concentration 1 nM): 2.12% | inhibition percentage of 3CL^pro ([3]; concentration 5 nM): 7.77% | inhibition percentage of 3CL^pro ([3]; concentration 10 nM): 9.75% | inhibition percentage of 3CL^pro ([3]; concentration 20 nM): 14.30% | inhibition percentage of 3CL^pro ([3]; concentration 30 nM): 18.23% | inhibition percentage of 3CL^pro ([3]; concentration 50 nM): 21.89% | inhibition percentage of 3CL^pro ([3]; concentration 100 nM): 58.21% | inhibition percentage of 3CL^pro ([3]; concentration 500 nM): 73.44% | inhibition percentage of 3CL^pro ([3]; concentration 1000 nM): 89.12% | Survival rate of HEK293 cells ([4]; 1.5625 nM): 95.07% | Survival rate of HEK293 cells ([4]; 3.125 nM): 95.62% | Survival rate of HEK293 cells ([4]; 6.25 nM): 93.10% | Survival rate of HEK293 cells ([4]; 12.5 nM): 90.50% | Survival rate of HEK293 cells ([4]; 25 nM): 88.23% | Survival rate of HEK293 cells ([4]; 50 nM): 87.10% | Survival rate of HEK293 cells ([4]; 100 nM): 82.87% | Survival rate of HEK293 cells ([4]; 200 nM): 82.56% | Survival rate of HEK293 cells ([4]; 400 nM): 80.83%

Cn1cc2cc(/N=c3\[nH]c(=O)n(Cc4nnn[nH]4)c(=O)n3Cc3ccccc3)c(Cl)cc2n1 [Compound 2, (E)-3-((1H-tetrazol-5-yl)methyl)-1-benzyl-6-((6-chloro-2-methyl-2H-indazol-5-yl)imino)-1,3,5-triazin-2,4-dione]
IC50 [3, 5]: 500 to 1000 nM

Cc1ccc(Cn2c(Nc3cc4cn(C)nc4cc3Cl)nc(=O)n(Cc3nnn[nH]3)c2=O)cc1 [Compound 3, (E)-3-(1H-tetrazol-5-yl)methyl)-6-(6-chloro-2-methyl-2H-indazol-5-yl)imino)-1-(4-methylbenzyl)-1,3,5-triazin-2,4-dione]
IC50 [3, 5]: 500 to 1000 nM

Cn1cc2cc(/N=c3\[nH]c(=O)n(Cc4nnn[nH]4)c(=O)n3Cc3ccc(C(C)(C)C)cc3)c(Cl)cc2n1 [Compound 4]
IC50 [3, 5]: 500 to 1000 nM

Cn1cc2cc(/N=c3\[nH]c(=O)n(Cc4nnn[nH]4)c(=O)n3Cc3ccc(Cl)cc3)c(Cl)cc2n1 [Compound 5]
IC50 [3, 5]: 200 to 500 nM

Cn1cc2cc(/N=c3\[nH]c(=O)n(Cc4nnn[nH]4)c(=O)n3Cc3ccc(Br)cc3)c(Cl)cc2n1 [Compound 6]
IC50 [3, 5]: 200 to 500 nM

Cn1cc2cc(Nc3nc(=O)n(Cc4nnn[nH]4)c(=O)n3Cc3ccc(-c4ccccc4)cc3)c(Cl)cc2n1 [Compound 7, (E)-3-((1H-tetrazol-5-yl)methyl)-1-([1,1-biphenyl]-4-ylmethyl)-6-((6-chloro-2-methyl-2H-indazol-5-yl)imino)-1,3,5-triazin-2,4-dione]
IC50 [3, 5]: > 1000 nM

Cn1cc2cc(Nc3nc(=O)n(Cc4nnn[nH]4)c(=O)n3Cc3ccc(C(F)(F)F)cc3)c(Cl)cc2n1 [Compound 8, (E)-3-(1H-tetrazol-5-yl)methyl)-6-(6-chloro-2-methyl-2H-indazol-5-yl)imino)-1-(4-(trifluoromethyl)benzyl)-1,3,5-triazin-2,4-dione]
IC50 [3, 5]: 500 to 1000 nM

Cn1cc2cc(/N=c3\[nH]c(=O)n(Cc4nnn[nH]4)c(=O)n3Cc3ccc([N+](=O)[O-])cc3)c(Cl)cc2n1 [Compound 9]
IC50 [3, 5]: > 1000 nM

COc1ccc(Cn2c(=O)n(Cc3nnn[nH]3)c(=O)[nH]/c2=N\c2cc3cn(C)nc3cc2Cl)cc1 [Compound 10]
IC50 [3, 5]: 200 to 500 nM

Cn1cc2cc(/N=c3\[nH]c(=O)n(Cc4nnn[nH]4)c(=O)n3Cc3ccc(OC(F)(F)F)cc3)c(Cl)cc2n1 [Compound 11]
IC50 [3, 5]: 500 to 1000 nM

Cn1cc2cc(/N=c3\[nH]c(=O)n(Cc4nnn[nH]4)c(=O)n3Cc3ccc(F)cc3)c(Cl)cc2n1 [Compound 12]
Survival rate of HepG2 cells ([1]; 1.5625 nM): 96.16% | Survival rate of HepG2 cells ([1]; 3.125 nM): 94.78% | Survival rate of HepG2 cells ([1]; 6.25 nM): 93.92% | Survival rate of HepG2 cells ([1]; 12.5 nM): 91.45% | Survival rate of HepG2 cells ([1]; 25 nM): 88.16% | Survival rate of HepG2 cells ([1]; 50 nM): 87.52% | Survival rate of HepG2 cells ([1]; 100 nM): 83.43% | Survival rate of HepG2 cells ([1]; 200 nM): 82.56% | Survival rate of HepG2 cells ([1]; 400 nM): 77.32% | Survival rate of A549 cells ([2]; 1.5625 nM): 98.43% | Survival rate of A549 cells ([2]; 3.125 nM): 96.76% | Survival rate of A549 cells ([2]; 6.25 nM): 96.86% | Survival rate of A549 cells ([2]; 12.5 nM): 96.42% | Survival rate of A549 cells ([2]; 25 nM): 95.19% | Survival rate of A549 cells ([2]; 50 nM): 93.96% | Survival rate of A549 cells ([2]; 100 nM): 93.51% | Survival rate of A549 cells ([2]; 200 nM): 92.13% | Survival rate of A549 cells ([2]; 400 nM): 89.12% | IC50 [3, 5]: < 200 nM | IC50 [3, 6]: 184 nM | inhibition at 0.0001 µM ([3]; concentration 0.1 nM, read-out: inhibition percentage of 3CL^pro): 0.52% | inhibition at 0.001 µM ([3]; concentration 1 nM, read-out: inhibition percentage of 3CL^pro): 1.86% | inhibition at 0.005 µM ([3]; concentration 5 nM, read-out: inhibition percentage of 3CL^pro): 4.98% | inhibition at 0.01 µM ([3]; concentration 10 nM, read-out: inhibition percentage of 3CL^pro): 7.28% | inhibition at 0.02 µM ([3]; concentration 20 nM, read-out: inhibition percentage of 3CL^pro): 9.3% | inhibition at 0.03 µM ([3]; concentration 30 nM, read-out: inhibition percentage of 3CL^pro): 12.3% | inhibition at 0.05 µM ([3]; concentration 50 nM, read-out: inhibition percentage of 3CL^pro): 18.8% | inhibition at 0.1 µM ([3]; concentration 100 nM, read-out: inhibition percentage of 3CL^pro): 40% | inhibition at 0.5 µM ([3]; concentration 500 nM, read-out: inhibition percentage of 3CL^pro): 70.2% | inhibition at 1 µM ([3]; concentration 1000 nM, read-out: inhibition percentage of 3CL^pro): 85.4% | Survival rate of HEK293 cells ([4]; 1.5625 nM): 93.44% | Survival rate of HEK293 cells ([4]; 3.125 nM): 92.73% | Survival rate of HEK293 cells ([4]; 6.25 nM): 91.16% | Survival rate of HEK293 cells ([4]; 12.5 nM): 89.80% | Survival rate of HEK293 cells ([4]; 25 nM): 85.34% | Survival rate of HEK293 cells ([4]; 50 nM): 82.99% | Survival rate of HEK293 cells ([4]; 100 nM): 82.76% | Survival rate of HEK293 cells ([4]; 200 nM): 78.93% | Survival rate of HEK293 cells ([4]; 400 nM): 77.46%

Cc1cc(C)cc(Cn2c(=O)n(Cc3nnn[nH]3)c(=O)[nH]/c2=N\c2cc3cn(C)nc3cc2Cl)c1 [Compound 13]
IC50 [3, 5]: 500 to 1000 nM

COc1cc(Cn2c(=O)n(Cc3nnn[nH]3)c(=O)[nH]/c2=N\c2cc3cn(C)nc3cc2Cl)cc(OC)c1 [Compound 14]
IC50 [3, 5]: 500 to 1000 nM

Cn1cc2cc(/N=c3\[nH]c(=O)n(Cc4nnn[nH]4)c(=O)n3Cc3cc(F)cc(F)c3)c(Cl)cc2n1 [Compound 15]
IC50 [3, 5]: < 200 nM | IC50 [3, 6]: < 200 nM

Cn1cc2cc(/N=c3\[nH]c(=O)n(Cc4nnnn4C)c(=O)n3Cc3cc(F)c(F)cc3F)c(Cl)cc2n1 [Compound 16]
IC50 [3, 5]: < 200 nM | IC50 [3, 6]: < 200 nM

CCn1nnnc1Cn1c(=O)[nH]/c(=N\c2cc3cn(C)nc3cc2Cl)n(Cc2ccc(C(F)(F)F)cc2)c1=O [Compound 18]
IC50 [3, 5]: 200 to 500 nM

CCn1nnnc1Cn1c(=O)[nH]/c(=N\c2ccc3nn(C)cc3c2)n(Cc2ccc([N+](=O)[O-])cc2)c1=O [Compound 19]
IC50 [3, 5]: 200 to 500 nM

CCn1nnnc1Cn1c(=O)[nH]/c(=N\c2cc3cn(C)nc3cc2Cl)n(Cc2ccc(Cl)cc2)c1=O [Compound 20]
IC50 [3, 5]: 200 to 500 nM

Cn1cc2cc(/N=c3\[nH]c(=O)n(Cc4nnnn4C4CC4)c(=O)n3Cc3cc(F)c(F)cc3F)c(Cl)cc2n1 [Compound 21]
IC50 [3, 5]: 200 to 500 nM

CC(C)n1nnnc1Cn1c(=O)[nH]/c(=N\c2cc3cn(C)nc3cc2Cl)n(Cc2cc(F)c(F)cc2F)c1=O [Compound 22]
IC50 [3, 5]: 200 to 500 nM

Cn1cc2cc(/N=c3\[nH]c(=O)n(Cc4nnnn4C4CCC4)c(=O)n3Cc3cc(F)c(F)cc3F)c(Cl)cc2n1 [Compound 23]
IC50 [3, 5]: 500 to 1000 nM

CC(C)Cn1nnnc1Cn1c(=O)[nH]/c(=N\c2cc3cn(C)nc3cc2Cl)n(Cc2cc(F)c(F)cc2F)c1=O [Compound 24]
IC50 [3, 5]: > 1000 nM
